One assay deals with 3',5'-cyclic-AMP phosphodiesterase 4A (Homo sapiens, UniProt P27815). The assay is described as follows: PDE4A activity assessed using human recombinant purified GST-PDE4A248.
Chain of 3',5'-cyclic-AMP phosphodiesterase 4A (P27815 whole entry): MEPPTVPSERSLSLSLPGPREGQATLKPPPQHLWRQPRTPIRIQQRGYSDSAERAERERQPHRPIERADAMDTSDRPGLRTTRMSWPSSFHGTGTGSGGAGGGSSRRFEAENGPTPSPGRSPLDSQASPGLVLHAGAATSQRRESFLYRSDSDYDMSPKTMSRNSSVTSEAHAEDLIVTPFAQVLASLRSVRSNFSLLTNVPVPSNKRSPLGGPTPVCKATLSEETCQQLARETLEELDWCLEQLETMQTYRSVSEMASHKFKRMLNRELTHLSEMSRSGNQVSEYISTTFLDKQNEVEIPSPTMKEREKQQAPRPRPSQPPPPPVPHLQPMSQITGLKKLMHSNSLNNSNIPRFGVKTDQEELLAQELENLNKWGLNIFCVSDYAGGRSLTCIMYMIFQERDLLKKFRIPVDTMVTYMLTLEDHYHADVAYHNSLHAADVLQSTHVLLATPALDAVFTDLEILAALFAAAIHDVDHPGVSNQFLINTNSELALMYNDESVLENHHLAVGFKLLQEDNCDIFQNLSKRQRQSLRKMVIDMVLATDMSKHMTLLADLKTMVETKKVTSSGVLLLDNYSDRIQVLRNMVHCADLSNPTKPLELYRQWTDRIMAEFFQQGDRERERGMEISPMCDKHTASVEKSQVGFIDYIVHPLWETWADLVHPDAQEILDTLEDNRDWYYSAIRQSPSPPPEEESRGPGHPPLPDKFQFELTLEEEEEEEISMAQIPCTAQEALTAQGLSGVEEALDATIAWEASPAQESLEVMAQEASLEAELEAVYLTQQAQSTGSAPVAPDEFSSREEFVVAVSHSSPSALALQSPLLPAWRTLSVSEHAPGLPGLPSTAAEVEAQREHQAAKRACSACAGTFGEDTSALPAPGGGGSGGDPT
For orientation: IC50 means the concentration that inhibits the measured activity by half. In the case of `COc1ccc(-c2ccc(-c3ccc(OC)c(OC4CCCC4)c3)o2)cc1OC1CCCC1`, the IC50 turned out to be 44 nM.

As for `COc1ccc(-c2oc(-c3ccccn3)cc2S(=O)(=O)c2ccccc2)cc1OC1CCCC1`, the IC50 is 770 nM.

On to `c1ccc(-c2ccc(-c3ccccc3)o2)cc1`, for which the IC50 is above 10000 nM.

With `COc1ccc(-c2cc(C(C)=O)c(-c3ccc(OC)c(OC)c3)o2)cc1OC`, the half-maximal inhibitory concentration (IC50) worked out at 120 nM.

Regarding `COc1ccc(-c2ccc(-c3ccccn3)o2)cc1OC1CCCC1`, the IC50 amounted to 25 nM.

In the case of `COc1ccc(-c2cc(S(=O)(=O)c3ccccc3)c(-c3ccccn3)o2)cc1OC1CCCC1`, the IC50 stood at 740 nM.

Take `COc1ccc(-c2oc(-c3ccccn3)cc2C(=O)c2ccccc2)cc1OC1CCCC1`: the IC50 was 590 nM.

On to `COc1ccc(-c2ccc(-c3ccc(OC)c(OC)c3)o2)cc1OC`, for which the IC50 amounted to 560 nM.

As for `COc1ccc(-c2ccc(-c3ccc4ccccc4n3)o2)cc1OC1CCCC1`, the IC50 was 190 nM.

For `O=C(c1ccccc1)c1cc(-c2ccccc2)oc1-c1ccccc1`, the IC50 came out at 340 nM.

Consider `COc1ccc(-c2ccc(-c3cccnc3)o2)cc1OC1CCCC1`, for which the IC50 amounted to 370 nM.

`COc1ccc(-c2ccc(-c3ccncc3)o2)cc1OC1CCCC1`: the IC50 was determined as 65 nM.

Consider `c1ccc(-c2cc(N3CCOCC3)c(-c3ccccc3)o2)cc1`, for which the IC50 turned out to be 2300 nM.

The species entered for the next assay is Mustela putorius furo. In words: Emetic effect in ferret model, threshold value. The assay is classed as functional.
The compound `COc1ccc([C@@H]2CNC(=O)C2)cc1OC1CCCC1` [(-)-ROLIPRAM] showed a Threshold value of 0.3 mg/kg.

`COc1ccc(-c2ccc(-c3ccccn3)o2)cc1OC1CCCC1` yielded a Threshold value of 10 mg/kg.

(Values after ChEMBL document CHEMBL1131915, “Substituted furans as inhibitors of the PDE4 enzyme” (Bioorg Med Chem Lett, 1999).)
